Laboratory results reported in PMC10997755, “Discovery of a small-molecule inhibitor that traps Polθ on DNA and synergizes with PARP inhibitors” (Nature Communications, 2024).
Several values for one entry are separate records, joined by “and”; a condition that tells them apart may be missing. Identical values can stand only once. Entries after “also recorded” stand apart in the source; their conditions may differ.

Key:
DLD1 BRCA2 -/- cells = assay: Clonogenic assay; type: cell-based; settings: for Average (colonies): DLD1 BRCA2 -/-
In short: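 Cells seeded at low density (300–1000 per well, by plate size and genotype), medium changed every 2 days, colonies grown 10–12 days. Fixed in water:ethanol:acetic acid, stained with 0.5% crystal violet, then counted; IC50 from ≥3 independent experiments, mean ± SEM.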

Polθ-pol = target: T1, Polθ-pol (Homo sapiens, UniProt O75417); assay: Cy5 fluorescence Polθ-pol DNA synthesis (strand displacement) IC50 assay; type: biochemical; settings: for IC50: Polθ-pol DNA synthesis, Cy5 fluorescence
T1 construct: purified recombinant human Polθ-pol (comprising amino acid residues 1792–2590); made in house
T1 sequence (O75417 1792-2590): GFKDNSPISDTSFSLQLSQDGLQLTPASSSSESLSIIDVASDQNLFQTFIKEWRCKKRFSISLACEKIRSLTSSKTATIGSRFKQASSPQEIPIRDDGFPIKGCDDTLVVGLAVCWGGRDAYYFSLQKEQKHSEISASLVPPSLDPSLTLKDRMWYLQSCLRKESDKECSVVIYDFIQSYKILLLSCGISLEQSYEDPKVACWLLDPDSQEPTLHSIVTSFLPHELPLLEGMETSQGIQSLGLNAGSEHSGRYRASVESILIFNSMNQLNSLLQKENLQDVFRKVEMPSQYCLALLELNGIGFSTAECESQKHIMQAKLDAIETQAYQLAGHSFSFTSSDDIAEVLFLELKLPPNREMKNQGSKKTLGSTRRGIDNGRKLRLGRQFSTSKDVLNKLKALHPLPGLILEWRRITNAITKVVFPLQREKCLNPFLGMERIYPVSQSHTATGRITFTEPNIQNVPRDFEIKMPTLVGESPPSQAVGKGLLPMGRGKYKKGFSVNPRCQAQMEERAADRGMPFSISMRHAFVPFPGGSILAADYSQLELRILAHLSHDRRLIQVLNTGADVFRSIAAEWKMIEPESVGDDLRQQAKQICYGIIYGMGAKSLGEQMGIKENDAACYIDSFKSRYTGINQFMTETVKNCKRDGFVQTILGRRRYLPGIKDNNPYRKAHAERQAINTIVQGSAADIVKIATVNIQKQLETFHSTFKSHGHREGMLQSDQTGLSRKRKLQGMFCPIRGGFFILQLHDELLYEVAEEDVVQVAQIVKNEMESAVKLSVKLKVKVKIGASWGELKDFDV
In short: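 Recombinant human Polθ-pol (aa 1792–2590, 5 nM) extends 60 nM Cy5/quencher primer-template with 50 uM dNTPs in 25 mM Tris pH 7.8, 10 mM MgCl2, 2.5% DMSO at 37 °C. After 18 min, stopped with 20 mM EDTA; Cy5 fluorescence read, 7-point series in triplicate, inhibition from the mean.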

LogP = type: physicochemical; settings: method not stated
DLD1 Parental cells = assay: Clonogenic assay; type: cell-based; settings: DLD1 Parental
Procedure: Cells were plated on six or twelve or twenty-four well plates. In six well plate, 1000 cells/ well of BRCA2 -/-, BRCA1 -/-, PALB2 mut and 500 cells/ well of wildtype pair was plated; In twelve well plate, 600 cells/ well of BRCA2 -/-, BRCA1 -/-, PALB2 mut and 400 cells/ well of wildtype pair was plated; In twenty-four well plate, 500 cells/ well of BRCA2 -/-, BRCA1 -/-, PALB2 mut and 300 cells/ well of wildtype pair was plated. For MEFs, 300 cells per well in six-well plate were seeded. The medium was replaced every 2 days until the colonies were ready for staining in 10–12 days. For staining: Medium was removed from plates, and cells were rinsed with PBS. Fixation was carried out with—Water: Ethanol: Acetic acid (5:4:1) for 30 min followed by staining of colonies with 0.5% crystal violet in Water: Ethanol (3:2) for 2 h at room temperature. The plates were rinsed with water and left for drying overnight at room temperature. Colonies were then counted and IC50 was calculated using results from 3 or more independent experiments. Response curves are shown as mean colony formation +/- S.E.M.

[1] = 10 μM compound, 5 nM PolQ, 60 nM DNA, 18 min

For `CN(C(=O)Oc1ccc(C(F)(F)F)cc1C(F)(F)F)c1ccc(F)cc1` [MC160385], the “selective killing / synthetic lethality in BRCA2-null DLD1 cells” value (DLD1 BRCA2 -/- cells; colony survival, versus BRCA2-WT) was “failed to show selective killing; also recorded: failure”, the “improved potency relative to hit MC28003” value (Polθ-pol) was ~ 18 fold and the “raw signal, Positive Control, Average” value (Polθ-pol; [1]) was 21.00. For the same compound, the “raw signal, Positive Control, Trial 1-3” value (Polθ-pol; [1]) was 20.96 and 21.46 and 20.58, the “Cy5 fluorescence, Average of Trial 1-3” value (Polθ-pol; MC160385 0.0014 μM, 5 nM PolQ) was 363.79 and the activity at 0.0041 µM (Polθ-pol; MC160385 0.0041 μM) was 77.8%. For the same compound, the inhibition at 0.0041 µM (Polθ-pol; MC160385 0.0041 μM) was 22.2%, the “Cy5 fluorescence, Average of Trial 1-3” value (Polθ-pol; MC160385 0.0041 μM, 5 nM PolQ) was 309.29 and the activity at 0.0123 µM (Polθ-pol; MC160385 0.0123 μM) was 38.7%. For the same compound, the inhibition at 0.0123 µM (Polθ-pol; MC160385 0.0123 μM) was 61.3%, the “Cy5 fluorescence, Average of Trial 1-3” value (Polθ-pol; MC160385 0.0123 μM, 5 nM PolQ) was 203.69 and the activity at 0.037 µM (Polθ-pol; MC160385 0.0370 μM) was 3.23%. The inhibition at 0.037 µM (Polθ-pol; MC160385 0.0370 μM) was 96.8%, the “Cy5 fluorescence, Average of Trial 1-3” value (Polθ-pol; MC160385 0.0370 μM, 5 nM PolQ) was 109.39 and the activity at 0.1111 µM (Polθ-pol; MC160385 0.1111 μM) was -2.07%. For the same compound, the inhibition at 0.1111 µM (Polθ-pol; MC160385 0.1111 μM) was 102%, the “Cy5 fluorescence, Average of Trial 1-3” value (Polθ-pol; MC160385 0.1111 μM, 5 nM PolQ) was 94.78 and the activity at 0.3333 µM (Polθ-pol; MC160385 0.3333 μM) was -2.9%. For the same compound, the inhibition at 0.3333 µM (Polθ-pol; MC160385 0.3333 μM) was 103%, the “Cy5 fluorescence, Average of Trial 1-3” value (Polθ-pol; MC160385 0.3333 μM, 5 nM PolQ) was 92.26 and the activity at 1 µM (Polθ-pol; MC160385 1.0000 μM) was -1.58%. The inhibition at 1 µM (Polθ-pol; MC160385 1.0000 μM) was 102%, the “Cy5 fluorescence, Average of Trial 1-3” value (Polθ-pol; MC160385 1.0000 μM, 5 nM PolQ) was 95.83 and the “Positive Control fluorescence, Average” value (Polθ-pol; MC160385 2 μM, sheet Fig. 1 b) was 100.15. The “Positive Control fluorescence, Average” value (Polθ-pol; MC160385 10 μM, 5 nM PolQ, 18 min, sheet Fig. 1 g) was 33.58, the IC50 (Polθ-pol) was 9 nM and the logP (LogP) was about 5.3.
In the case of `Nc1ccc(C#CCN(C(=O)Cc2ncc(C(F)(F)F)cc2C(F)(F)F)c2ccc(F)cc2)nn1` [RP6685, reference compound], the “Average (colonies)” value (DLD1 BRCA2 -/- cells; 0.375 uM, block 1 of sheet) is reported as 44.6667, the “Average (colonies)” value (DLD1 BRCA2 -/- cells; 0.375 uM, block 2 of sheet) is reported as 14.6667 and the “Average (colonies)” value (DLD1 BRCA2 -/- cells; 0.375 uM, block 3 of sheet) is reported as 52. For the same compound, the “Average (colonies)” value (DLD1 BRCA2 -/- cells; 0.375 uM, block 4 of sheet) was 52, the “Average (colonies)” value (DLD1 BRCA2 -/- cells; 0.75 uM, block 1 of sheet) was 42.3333 and the “Average (colonies)” value (DLD1 BRCA2 -/- cells; 0.75 uM, block 2 of sheet) was 10.3333. For the same compound, the “Average (colonies)” value (DLD1 BRCA2 -/- cells; 0.75 uM, block 3 of sheet) was 48.3333, the “Average (colonies)” value (DLD1 BRCA2 -/- cells; 0.75 uM, block 4 of sheet) was 49.6667 and the “Average (colonies)” value (DLD1 BRCA2 -/- cells; 1.5 uM, block 1 of sheet) was 34. For the same compound, the “Average (colonies)” value (DLD1 BRCA2 -/- cells; 1.5 uM, block 2 of sheet) was 7.333, the “Average (colonies)” value (DLD1 BRCA2 -/- cells; 1.5 uM, block 3 of sheet) was 43.6667 and the “Average (colonies)” value (DLD1 BRCA2 -/- cells; 1.5 uM, block 4 of sheet) was 41.6667. For the same compound, the “Average (colonies)” value (DLD1 BRCA2 -/- cells; 3 uM, block 1 of sheet) was 34.3333, the “Average (colonies)” value (DLD1 BRCA2 -/- cells; 3 uM, block 2 of sheet) was 4 and the “Average (colonies)” value (DLD1 BRCA2 -/- cells; 3 uM, block 3 of sheet) was 33.6667. The “Average (colonies)” value (DLD1 BRCA2 -/- cells; 3 uM, block 4 of sheet) was 36.3333, the “Average (colonies)” value (DLD1 BRCA2 -/- cells; 6 uM, block 1 of sheet) was 30 and the “Average (colonies)” value (DLD1 BRCA2 -/- cells; 6 uM, block 2 of sheet) was 4. The “Average (colonies)” value (DLD1 BRCA2 -/- cells; 6 uM, block 3 of sheet) was 31, the “Average (colonies)” value (DLD1 BRCA2 -/- cells; 6 uM, block 4 of sheet) was 28 and the “Average (colonies)” value (DLD1 BRCA2 -/- cells; 12 uM, block 1 of sheet) was 25. For the same compound, the “Average (colonies)” value (DLD1 BRCA2 -/- cells; 12 uM, block 2 of sheet) was 2, the “Average (colonies)” value (DLD1 BRCA2 -/- cells; 12 uM, block 3 of sheet) was 21.3333 and the “Average (colonies)” value (DLD1 BRCA2 -/- cells; 12 uM, block 4 of sheet) was 9.333. The IC50 (DLD1 BRCA2 -/- cells; DLD1 cells, label beside BRCA2-null curve, read-out: IC50 clonogenic survival) was about 4500 nM, the “potency in BRCA2-null cells compared with RTx-161” value (DLD1 BRCA2 -/- cells; clonogenic survival) was “slightly reduced potency” and the “Average (colonies)” value (DLD1 Parental cells; 0.375 uM, block 1 of sheet) was 72.6667. For the same compound, the “Average (colonies)” value (DLD1 Parental cells; 0.375 uM, block 2 of sheet) was 75, the “Average (colonies)” value (DLD1 Parental cells; 0.375 uM, block 3 of sheet) was 87 and the “Average (colonies)” value (DLD1 Parental cells; 0.375 uM, block 4 of sheet) was 63.6667. The “Average (colonies)” value (DLD1 Parental cells; 0.75 uM, block 1 of sheet) was 55.3333, the “Average (colonies)” value (DLD1 Parental cells; 0.75 uM, block 2 of sheet) was 76 and the “Average (colonies)” value (DLD1 Parental cells; 0.75 uM, block 3 of sheet) was 85.6667. The “Average (colonies)” value (DLD1 Parental cells; 0.75 uM, block 4 of sheet) was 65.6667, the “Average (colonies)” value (DLD1 Parental cells; 1.5 uM, block 1 of sheet) was 59.3333 and the “Average (colonies)” value (DLD1 Parental cells; 1.5 uM, block 2 of sheet) was 75. For the same compound, the “Average (colonies)” value (DLD1 Parental cells; 1.5 uM, block 3 of sheet) was 80, the “Average (colonies)” value (DLD1 Parental cells; 1.5 uM, block 4 of sheet) was 63.3333 and the “Average (colonies)” value (DLD1 Parental cells; 3 uM, block 1 of sheet) was 73. For the same compound, the “Average (colonies)” value (DLD1 Parental cells; 3 uM, block 2 of sheet) was 75.6667, the “Average (colonies)” value (DLD1 Parental cells; 3 uM, block 3 of sheet) was 85.6667 and the “Average (colonies)” value (DLD1 Parental cells; 3 uM, block 4 of sheet) was 65.6667. For the same compound, the “Average (colonies)” value (DLD1 Parental cells; 6 uM, block 1 of sheet) was 74, the “Average (colonies)” value (DLD1 Parental cells; 6 uM, block 2 of sheet) was 74.3333 and the “Average (colonies)” value (DLD1 Parental cells; 6 uM, block 3 of sheet) was 84. For the same compound, the “Average (colonies)” value (DLD1 Parental cells; 6 uM, block 4 of sheet) was 64, the “Average (colonies)” value (DLD1 Parental cells; 12 uM, block 1 of sheet) was 60.6667 and the “Average (colonies)” value (DLD1 Parental cells; 12 uM, block 2 of sheet) was 75. The “Average (colonies)” value (DLD1 Parental cells; 12 uM, block 3 of sheet) was 81, the “Average (colonies)” value (DLD1 Parental cells; 12 uM, block 4 of sheet) was 64.3333 and the IC50 (Polθ-pol) was 6.9 nM.
